The results in this text go back to patent US9018263B2, “Antimicrobial compositions comprising trimethylene glycol oligomer and methods of using the compositions” (E I du Pont de Nemours and Company, priority 2010, dated 2015).

Test [1] deals with Staphylococcus aureus ATCC 6538. The test can be described thus: Example 4: di(1,3-propanediol) and DPG, plate counts. In kind it is cell-based. The conditions noted are these: for CFU/mL: S. aureus inoculum; for effect on gram positive bacteria (in words): S. aureus. On the procedure:
[The source words this procedure for another target and reports this target under the same test.] (§1) Two test microorganisms were used, the Gram-negative bacterium, Escherichia coli ATCC 8739, and the Gram-positive bacterium, Staphylococcus aureus ATCC 6538. These microrganisms were grown overnight in 10 mL Tryptic soy broth (TSB) starter cultures, and then inoculated into Klett flasks containing 30 mL of TSB. The Klett flasks were incubated on an incubator shaker at 37° C. until the desired Klett reading was obtained (early stationary phase). Each test inoculum was prepared by adding 0.1 mL of the Klett flask culture to 9.9 mL of Mueller-Hinton II Broth (cation-adjusted) or M9 Broth.
(§2) The unfractionated mixture, each fraction, a control, and DPG (comparative example) were analyzed for antibacterial or bacteristatic properties against E. coli according to the protocol shown below. Numbers in exponential format are indicated with “E”, i.e. 2.2×10^+9 are written as 2.2E+09.

Test [2] deals with Escherichia coli ATCC 8739. The test is described as above. In kind it is cell-based. The conditions noted are these: for CFU/mL: E. coli inoculum. On the procedure: as §1, §2

As for 1,2-dipropaneglycol [DPG], the CFU/mL in test [1] (Conc. 0.1%) was determined as 2.0E+07 CFU/mL; in test [1] (Conc. 0.5%), 2.0E+07 CFU/mL; in test [1] (Conc. 1%), 2.0E+07 CFU/mL; in test [1] (Conc. 10%), 2.1E+07 CFU/mL; in test [2] (Conc. 0.1%), 2.1E+08 CFU/mL; in test [2] (Conc. 0.5%), 2.9E+08 CFU/mL. Further, the values for the CFU/mL in test [2] (Conc. 1%) and in test [2] (Conc. 10%) were 3.7E+08 CFU/mL and 1.5E+05 CFU/mL, respectively. Further, the “effect on gram positive bacteria (in words)” value in test [1] (0.1 to 10%) was “little or no antibacterial or bacteristatic effect”.
In the case of `OCCCOCCCO` [PDO Dimer, di(1,3-propanediol)], the CFU/mL in test [1] (Conc. 0.1%) is 2.7E+07 CFU/mL; in test [1] (Conc. 0.5%) it was 1.4E+04 CFU/mL; in test [1] (Conc. 1%), 1.6E+03 CFU/mL; in test [2] (Conc. 0.1%), 3.2E+08 CFU/mL; in test [2] (Conc. 0.5%), 7.6E+02 CFU/mL; in test [2] (Conc. 1%), <10 CFU/mL. Moreover, in test [1] (concentrations of 0.5% and 1%), the “effect on gram positive bacteria (in words)” value is given as “kills or inhibits the growth”. In addition, in test [2] (E. coli, concentrations of 0.5% and 1%), the “effect on gram negative bacteria (in words)” value is reported as “kills or inhibits the growth”.
